# Reference: US20230286973A1, “PROTEIN SECRETION INHIBITORS” (KEZAR LIFE SCIENCES, priority 2020, published 2023)
# What was measured:
# [1] = system: PD1-ss+10aa/Gaussia Luciferase; assay: Dox-Induced PD1-ss-Gluc Assay; type: cell-based; details: 24 hr Dox induction; 293FRT/TO cells; mean; read-out: 24 hr Dox Inducible PD1ssGluc 293FRT/TO: Mean IC50
# In short: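 Flp-In 293 T-REx cells stably carrying a doxycycline-inducible Gaussia luciferase fused to the PD1 signal sequence plus 10 aa were plated the day before. Compound dilutions in DMSO/media containing doxycycline were then added and incubated at 37 °C, 5% CO2. Data for undefined stereochemistry refer to stereoisomer mixtures.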
# [2] = system: TNFα-FL/Gaussia Luciferase; assay: Dox Induced TNFα-FL-Gluc Assay; type: cell-based; details: for IC50: 24 hr Dox induction, 293FRT/TO cells, mean, read-out: 24 hr Dox Inducible TNFaFLGluc 293FRT/TO: Mean IC50; for 24 hr Dox Inducible TNFaFLGluc 293FRT/TO: TNF/PD1: ratio of TNFaFLGluc IC50 to PD1ssGluc IC50, '<=>' given where both are I.A.
# In short: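 Flp-In 293 T-REx cells stably expressing full-length TNFα (aa 1-233) fused at its C-terminus to Gaussia luciferase under tetracycline-regulated control were plated the day before assay. Compound dilutions in DMSO/media containing doxycycline were added and incubated at 37 °C, 5% CO2. Unspecified stereochemistry denotes stereoisomer mixtures.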
# [3] = system: HER3-ss+4aa/Gaussia Luciferase; assay: Dox-Induced Her3-ss-Gluc Assay; type: cell-based; details: 24 hr Dox induction; 293FRT/TO cells; mean; read-out: 24 hr Dox Inducible Her3(ss + 4)Gluc 293FRT/TO: Mean IC50
# In short: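 Stable Flp-In 293 T-REx line expressing Gaussia luciferase fused to the HER3 signal sequence plus 4 amino acids under tetracycline-regulated (T-REx) control. Cells plated the day before, then treated with compound dilutions in DMSO/media containing doxycycline and incubated at 37° C., 5% CO2.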
# [4] = system: IL-2-FL/Gaussia Luciferase; assay: Dox Induced IL2-FL-Gluc Assay; type: cell-based; details: for IC50: 24 hr Dox induction, 293FRT/TO cells, mean, read-out: 24 hr Dox Inducible IL2FLGluc 293FRT/TO: Mean IC50; for 24 hr Dox Inducible IL2FLGluc 293FRT/TO: IL2/PD1: ratio of IL2FLGluc IC50 to PD1ssGluc IC50, '<=>' given where both are I.A.
# In short: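 Flp-In 293 T-REx cells stably carrying doxycycline-inducible full-length IL-2 (aa 1-153) fused at its C-terminus to Gaussia luciferase, selected with hygromycin and blasticidin. Cells were plated the day before, then treated with compounds in DMSO/media containing doxycycline at 37° C, 5% CO2.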
# [5] = system: multiple myeloma cell line NCI-H929; assay: H929 Cell Viability Assay; type: cell-based, human; details: Homo sapiens, NCI-H929, 48 h, NCI-H929 cells, Celltiter-Glo
# In short: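 NCI-H929 cells, resuspended in RPMI 1640 with 10% FBS and 2 mM glutamine, were treated with compound dilutions in DMSO/media and incubated 48 hours at 37° C, 5% CO2. Viability was read by CellTiter-Glo luminescence. Compounds drawn without stereochemistry were tested as stereoisomer mixtures.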
# [6] = system: multiple myeloma cell line U266B1; assay: U266 Cell Viability Assay; type: cell-based, human; details: Homo sapiens, U-266, 48 h, U266B1 cells, Celltiter-Glo
# In short: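 Cells grown in RPMI 1640 with 10% FBS, 2 mM glutamine and penicillin/streptomycin were exposed to compound dilutions in DMSO/media for 48 hours at 37° C., 5% CO2. Viability was read by CellTiter-Glo luminescence. Undefined stereocentres mean data for stereoisomer mixtures.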
# [7] = Liver Microsome Stability Assay (rat); details: rat liver microsomes, with NADPH, 1.0 uM compound
# Method: (§1) Stability of a compound was assessed in the presence of liver microsomes from various sources—mouse, rat, monkey and human liver microsomes. 1.0 uM compound, 0.4% DMSO in 0.1 M Potassium Phosphate with 1.0 mg/mL liver microsomes, were incubated at 37° C. with or without 1 mM NADPH. The samples were quenched at 0, and 30 minutes.
# [8] = Liver Microsome Stability Assay (mouse); details: mouse liver microsomes, with NADPH, 1.0 uM compound
# Method: as §1
# [9] = Liver Microsome Stability Assay (human); details: human liver microsomes, with NADPH, 1.0 uM compound
# Method: as §1
# [10] = Liver Microsome Stability Assay (monkey); details: monkey liver microsomes, with NADPH, 1.0 uM compound
# Method: as §1
SMILES,IC50 [1] [µM],IC50 [2] [µM],IC50 [3] [µM],IC50 [4] [µM],EC50 [5] [µM],EC50 [6] [µM],Liver Microsome Stability (Multiple Species): Rat - % Remaining after 30 min w/NADPH [7] [%],Liver Microsome Stability (Multiple Species): Mouse - % Remaining after 30 min w/NADPH [8] [%],Liver Microsome Stability (Multiple Species): Human - % Remaining after 30 min w/NADPH [9] [%],Liver Microsome Stability (Multiple Species): Monkey - % Remaining after 30 min w/NADPH [10] [%],24 hr Dox Inducible TNFaFLGluc 293FRT/TO: TNF/PD1 [2],24 hr Dox Inducible IL2FLGluc 293FRT/TO: IL2/PD1 [4]
"O=C(Nc1nc(CCc2coc(-c3ccccc3)n2)cs1)c1cccn1Cc1ccncc1 [Compound E12, N-(4-(2-(2-phenyloxazol-4-yl)ethyl)thiazol-2-yl)-1-(pyridin-4-ylmethyl)-1H-pyrrole-2-carboxamide]",0.124,7.89,0.213,0.432,> 25,> 25,0.83,0.23,0.45,0.19,63.4,3.5
"Cc1ccc(S(=O)(=O)N2CCC[C@@H]2c2csc(NC(=O)c3cccn3Cc3ccncc3)n2)cc1 [Compound E14, (R)-1-(pyridin-4-ylmethyl)-N-(4-(1-tosylpyrrolidin-2-yl)thiazol-2-yl)-1H-pyrrole-2-carboxamide]",4.24,> 25,20.7,6.62,> 25,> 25,0.11,0.1,0.2,0.11,>5.90,1.6
"CC(=O)N(C)C/C=C/c1csc(NC(=O)c2cccn2Cc2ccncc2)n1 [Compound E15, (E)-N-(4-(3-(N-methylacetamido)prop-1-en-1-yl)thiazol-2-yl)-1-(pyridin-4-ylmethyl)-1H-pyrrole-2-carboxamide]",> 25,> 25,> 25,> 25,> 25,> 25,0.53,0.54,0.91,0.11,,1
"O=C(Nc1nc(/C=C/[C@H]2CCCCN2)cs1)c1cccn1Cc1ccncc1 [Compound E16, (R,E)-N-(4-(2-(piperidin-2-yl)vinyl)thiazol-2-yl)-1-(pyridin-4-ylmethyl)-1H-pyrrole-2-carboxamide]",> 25,> 25,> 25,> 25,> 25,> 25,51.2,37,1.56,0.72,,1
"O=C(Nc1nc([C@H]2CCCN2)cs1)c1cccn1Cc1ccncc1 [Compound E17, (R)-1-(pyridin-4-ylmethyl)-N-(4-(pyrrolidin-2-yl)thiazol-2-yl)-1H-pyrrole-2-carboxamide]",> 25,> 25,> 25,> 25,> 25,> 25,27.8,35.8,35.6,18.1,,1
"O=C(Nc1nc([C@H]2CCCN2c2ccccc2)cs1)c1cccn1Cc1ccnc(Br)c1 [Compound E23, (R)-1-((2-bromopyridin-4-yl)methyl)-N-(4-(1-phenylpyrrolidin-2-yl)thiazol-2-yl)-1H-pyrrole-2-carboxamide]",0.338,11.4,0.629,0.773,18,> 25,4.14,6.17,3,2.07,33.8,2.3

# Second part, led by results:
IC50 [1] [µM],IC50 [2] [µM],IC50 [3] [µM],IC50 [4] [µM],EC50 [5] [µM],EC50 [6] [µM],Liver Microsome Stability (Multiple Species): Rat - % Remaining after 30 min w/NADPH [7] [%],Liver Microsome Stability (Multiple Species): Mouse - % Remaining after 30 min w/NADPH [8] [%],Liver Microsome Stability (Multiple Species): Human - % Remaining after 30 min w/NADPH [9] [%],Liver Microsome Stability (Multiple Species): Monkey - % Remaining after 30 min w/NADPH [10] [%],SMILES,24 hr Dox Inducible TNFaFLGluc 293FRT/TO: TNF/PD1 [2],24 hr Dox Inducible IL2FLGluc 293FRT/TO: IL2/PD1 [4]
0.0533,0.832,0.114,0.184,5.91,> 25,10.1,1.95,5.08,0.67,"CC(c1ccncc1)n1cccc1C(=O)Nc1nc([C@H]2CCCN2c2ccccc2)cs1 (stereo partly drawn) [Compound E13, N-(4-((R)-1-phenylpyrrolidin-2-yl)thiazol-2-yl)-1-(1-(pyridin-4-yl)ethyl)-1H-pyrrole-2-carboxamide]",15.6,3.4
> 5,> 5,> 5,> 5,> 25,> 25,19.4,33.5,0.2,0.27,"O=C(Nc1nc(/C=C/[C@@H]2CCCCN2)cs1)c1cccn1Cc1ccncc1 [Compound E18, (S,E)-N-(4-(2-(piperidin-2-yl)vinyl)thiazol-2-yl)-1-(pyridin-4-ylmethyl)-1H-pyrrole-2-carboxamide]",,1
6.48,> 25,> 25,> 25,15.6,23.7,0.1,0.02,0.8,0.23,"O=C(Nc1nc([C@H]2CCCN2c2ccccc2)cs1)c1cccn1CCc1cccnc1 [Compound E21, (R)-N-(4-(1-phenylpyrrolidin-2-yl)thiazol-2-yl)-1-(2-(pyridin-3-yl)ethyl)-1H-pyrrole-2-carboxamide]",>3.86,>3.9
0.13,3.42,0.216,0.399,11.9,> 25,0.79,1.4,11.5,0.58,"O=C(Nc1nc([C@H]2CCCN2c2ccccc2)cs1)c1cccn1Cc1ccncc1Br [Compound E22, (R)-1-((3-bromopyridin-4-yl)methyl)-N-(4-(1-phenylpyrrolidin-2-yl)thiazol-2-yl)-1H-pyrrole-2-carboxamide]",26.4,3.1
